Data taken from paper PMC9788418, “Design, Synthesis and Biological Evaluation of Syn and Anti-like Double Warhead Quinolinones Bearing Dihydroxy Naphthalene Moiety as Epidermal Growth Factor Receptor Inhibitors with Potential Apoptotic Antiproliferative Action” (Molecules, 2022).
Like-named read-outs stand apart in the source and are kept apart here.

Assays:
[1] = tested on: MCF-10A (human mammary gland epithelial) cell line; assay: Cell viability assay (MTT) on normal cell line; type: cell-based; conditions: 50 µM, four days
Description: (§1) A cell viability test was performed using MCF-10A (human mammary gland epithelial) cell line to investigate the effect of 4a–e and 7a–e on normal cell lines. In this investigation, a concentration of 50 µM of the studied compound is employed for four days, after which cell viability is assessed.
(§2) 4.2. Biological evaluation
(§3) 4.2.1. Cytotoxic activity using MTT Assay and evaluation of IC50
(§4) MTT assay was carried out to study the effect of compounds on mammary epithelial cells (MCF-10A). The medium in which cells were propagated contained Dulbecco's modified Eagle's medium (DMEM)/ Ham's F-12 medium (1:1) supplemented with epidermal growth factor (20 ng/mL), hydrocortisone (500 ng/mL), insulin (10 μg/mL), 2 mM glutamine and 10% foetal calf serum. After every 2-3 days, the cells were passaged using trypsin ethylenediamine tetra acetic acid (EDTA). The cells were seeded at a density of 10^4 cells mL-1 in flat-bottomed culture plates containing 96 wells each. After 24 h, medium was removed from the plates and the compounds in (in 0.1% DMSO) were added (in 200 μL medium to yield a final concentration of 0.1% v/v) to the wells of plates. A single compound was designated with four wells followed by incubation of plates for 96h at 37°C. After incubation, medium was removed completely from the plates followed by addition of MTT (0.4 mg/mL in medium) to each well and subsequent incubation of plates for 3h. MTT (along with the medium) was removed and DMSO (150μL) was added to each well of the culture plates, followed by vortexing and subsequent measurement of absorbance (at 540 nm) using microplate reader. […]

[2] = tested on: A-549 (epithelial cancer cell line); assay: Antiproliferative assay; type: cell-based, human; conditions: read-out: Antiproliferative Activity IC50 ± SEM, A-549
Description: (§5) 4.2.1.2. Assay for antiproliferative effect
(§6) To explore the antiproliferative potential of compounds MTT assay was performed according to previously reported procedure using different cell lines to explore the antiproliferative potential of compounds propidium iodide fluorescence assay was performed using different cell lines. To calculate the total nuclear DNA, a fluorescent dye (propidium iodide, PI) is used which can attach to the DNA, thus offering a quick and precise technique. PI cannot pass through the cell membrane and its signal intensity can be considered as directly proportional to quantity of cellular DNA. Cells whose cell membranes are damaged or have changed permeability are counted as dead ones. The assay was performed by seeding the cells of different cell lines at a density of 3000-7500 cells/well (in 200µl […]
(§7) atmospheric conditions. The medium was removed; the compounds were added to the plates at 10 µM concentrations (in 0.1% DMSO) in triplicates, followed by incubation for 48 h. DMSO (0.1%) was used as control. After incubation, medium was removed followed by the addition of PI (25 µl, 50µg/mL in water/medium) to each well of the plates. At -80 °C, the plates were allowed to freeze for 24 h, followed by thawing at 25 °C. A fluorometer (Polar-Star BMG Tech) was used to record the readings at excitation and emission wavelengths of 530 and 620 nm for each well. The percentage cytotoxicity of compounds was calculated using the following formula:
(§8) Where ATC= Absorbance of treated cells and AC= Absorbance of control. […]
(§9) positive control in the assay.

[3] = tested on: HT-29 (colon cancer cell line); assay: Antiproliferative assay; type: cell-based, human; conditions: read-out: Antiproliferative Activity IC50 ± SEM, HT-29
Description: as §5, §6, §7, §8, §9

[4] = tested on: MCF-7 (breast cancer cell line); assay: Antiproliferative assay; type: cell-based, human; conditions: read-out: Antiproliferative Activity IC50 ± SEM, MCF-7
Description: as §5, §6, §7, §8, §9

[5] = tested on: Panc-1 (pancreas cancer cell line); assay: Antiproliferative assay; type: cell-based, human; conditions: read-out: Antiproliferative Activity IC50 ± SEM, Panc-1
Description: as §2
4.2.1. Cytotoxic activity using MTT Assay and evaluation of IC50 […]
cells were seeded at a density of 10^4 cells mL-1 in flat-bottomed culture plates containing 96 wells each. After 24 h, medium was removed from the plates and the compounds in (in 0.1% DMSO) were added (in 200 μL medium to yield a final concentration of 0.1% v/v) to the wells of plates. A single […]
incubation, medium was removed completely from the plates followed by addition of MTT (0.4 mg/mL in medium) to each well and subsequent incubation of plates for 3h. MTT (along with the medium) was removed and DMSO (150μL) was added to each well of the culture plates, followed by vortexing and subsequent measurement of absorbance (at 540 nm) using microplate reader. The data […]
as §5, §6, §7, §8, §9

[6] = tested on: four tested cancer cell lines (A-549, MCF-7, Panc-1, HT-29); assay: Antiproliferative assay, average over the four cell lines; type: cell-based, human; conditions: for GI50: mean of the four cancer cell lines
Description: The newly synthesized compounds were tested for antiproliferative activity against four different types of cancer cells: A-549 (epithelial cancer cell line), MCF-7 (breast cancer cell line), Panc-1 (pancreas cancer cell line), and HT-29 (colon cancer cell line).
After 24 h, medium was removed from the plates and the compounds in (in 0.1% DMSO) were added (in 200 μL medium to yield a final concentration of 0.1% v/v) to the wells of plates. A single compound was designated with four wells followed by incubation of plates for 96h at 37°C. After incubation, medium was removed completely from the plates followed by addition of MTT (0.4 mg/mL in medium) to each well and subsequent incubation of plates for 3h. MTT (along with the medium) was removed and DMSO (150μL) was added to each well of the culture plates, followed by vortexing and subsequent measurement of absorbance (at 540 nm) using microplate reader. The data are shown as percentage inhibition of proliferation in comparison with controls containing 0.1% 4.2.1.2. Assay for antiproliferative effect
To explore the antiproliferative potential of compounds MTT assay was performed according to previously reported procedure using different cell lines to explore the antiproliferative potential of compounds propidium iodide fluorescence assay was performed using different cell lines. To calculate the total nuclear DNA, a fluorescent dye (propidium iodide, PI) is used which can attach to the DNA, thus offering a quick and precise technique. PI cannot pass through the cell membrane and its signal intensity can be considered as directly proportional to quantity of cellular DNA. Cells whose cell membranes are damaged or have changed permeability are counted as dead ones. The assay was performed by seeding the cells of different cell lines at a density of 3000-7500 cells/well (in 200µl medium) in culture plates followed by incubation for 24h at 37 °C in humidified 5% CO2/95% air atmospheric conditions. The medium was removed; the compounds were added to the plates at 10 µM concentrations (in 0.1% DMSO) in triplicates, followed by incubation for 48 h. DMSO (0.1%) was used as control. After incubation, medium was removed followed by the addition of PI (25 µl, 50µg/mL in water/medium) to each well of the plates. At -80 °C, the plates were allowed to freeze for 24 h, followed by thawing at 25 °C. A fluorometer (Polar-Star BMG Tech) was used to record the readings at excitation and emission wavelengths of 530 and 620 nm for each well. The percentage cytotoxicity of compounds was calculated using the following formula:
Where ATC= Absorbance of treated cells and AC= Absorbance of control. Erlotinib was used as positive control in the assay.

[7] = Cell viability assay (MTT) on normal cell line; type: cell-based, human; conditions: human, four days
Description: as §1, §2, §3, §4

caspase-3 [8] = assay: Caspase-3 activation assay; conditions: A-549, vs control untreated cells
Description: (§10) record autophosphorylation level, EGFR kinase assay was carried out based on DELFIA/Time-
(§11) Resolved Fluorometry. The compounds were first dissolved in DMSO absolute, after dilution to
Each compound (10 µL) was incubated
(§12) with recombinant enzyme (10 µL, 5 ng for EGFR, 1:80 dilution in 100 mM HEPES) for 10 min at
(§13) 25 °C, after the addition of 5X buffer (10 µL, containing 2 mM MnCl2, 100 µM Na3VO4, 20 mM HEPES and 1 mM DTT) and ATP-MgCl2 (20 µL, containing 0.1 mM ATP and 50 mM MgCl2) and
(§14) incubation for 1h. The negative and positive controls were included in each plate by the incubation
(§15) of enzyme either with or without ATP-MgCl2. The liquid was removed after incubation and the plates
(§16) were washed thrice using wash buffer. Europium-tagged antiphosphotyrosine antibody (75 µL, 400
(§17) ng) was added to each well followed by incubation of 1h and then washing of the plates using buffer.
(§18) The enhancement solution was added to each well and the signal was recorded at excitation and
(§19) The autophosphorylation percentage inhibition by compounds was calculated using the following equation:

EGFR [9] = target: T1, EGFR (Homo sapiens, UniProt P00533); assay: EGFR inhibitory assay (EGFR-TK, DELFIA/time-resolved fluorometry)
Description: EGFR-TK assay was performed to evaluate the inhibitory potency of novel compounds against
EGFR. Baculoviral expression vectors including pBlueBacHis2B and pFASTBacHTc were used
5ʹ upstream to the EGFR sequence comprised a sequence that encoded (His)6. Sf-9 cells were infected for 72h for protein expression. The pellets of Sf-9 cells were solubilized in a buffer containing sodium vanadate (100 µM), aprotinin (10 µg/mL), triton (1%), HEPES buffer (50mM), ammonium molybdate (10 µM), benzamidine HCl (16 µg/mL), NaCl (10 mM), leupeptin (10 µg/mL) and pepstatin (10 µg/mL) at 0°C for 20 min at pH 7.4, followed by centrifugation for 20 min.
To eliminate the non-specifically bound material, a Ni-NTA super flow packed column was used to pass through and wash the crude extract supernatant first with 10 mM and then with 100 mM imidazole. Histidine-linked proteins were first eluted with 250 and then with 500 mM imidazole after (1 picture or pasted object on this page, not shown here)
dialysis against NaCl (50 mM), HEPES (20 mM), glycerol (10%) and 1 µg/mL each of aprotinin, leupeptin and pepstatin for 120 min. The purification was performed either at 4 °C or on ice. To
as §10, §11
Each compound (10 µL) was incubated
as §12, §13, §14, §15, §16, §17, §18, §19

four cancer cell lines = tested on: four cancer cell lines; parameters: method as in PMID 35195309; conditions: cited from earlier work
caspase-3 [10] = tested on: caspase-3; parameters: method as in PMID 35195309; conditions: human Panc-1 cancer cells; cited from earlier work
caspase-9 = tested on: caspase-9; parameters: method as in PMID 35195309; conditions: human Panc-1 cancer cells; cited from earlier work
Cytochrome-C = tested on: Cytochrome-C; parameters: method as in PMID 35195309; conditions: human Panc-1 cancer cells; cited from earlier work
Bax = tested on: Bax; parameters: method as in PMID 35195309; conditions: vs normal untreated cells; cited from earlier work
Bcl-2 = tested on: Bcl-2; parameters: method as in PMID 35195309; conditions: cited from earlier work
EGFR [11] = target: T1, EGFR; parameters: 645–1186); His6 (N); made in house; host or cells: Sf-9 insect cells (baculovirus; pBlueBacHis2B and pFASTBacHTc vectors; conditions: cited from earlier work
[12] = MCF-10A mammary gland epithelial cells

T1 sequence (P00533 669-1210): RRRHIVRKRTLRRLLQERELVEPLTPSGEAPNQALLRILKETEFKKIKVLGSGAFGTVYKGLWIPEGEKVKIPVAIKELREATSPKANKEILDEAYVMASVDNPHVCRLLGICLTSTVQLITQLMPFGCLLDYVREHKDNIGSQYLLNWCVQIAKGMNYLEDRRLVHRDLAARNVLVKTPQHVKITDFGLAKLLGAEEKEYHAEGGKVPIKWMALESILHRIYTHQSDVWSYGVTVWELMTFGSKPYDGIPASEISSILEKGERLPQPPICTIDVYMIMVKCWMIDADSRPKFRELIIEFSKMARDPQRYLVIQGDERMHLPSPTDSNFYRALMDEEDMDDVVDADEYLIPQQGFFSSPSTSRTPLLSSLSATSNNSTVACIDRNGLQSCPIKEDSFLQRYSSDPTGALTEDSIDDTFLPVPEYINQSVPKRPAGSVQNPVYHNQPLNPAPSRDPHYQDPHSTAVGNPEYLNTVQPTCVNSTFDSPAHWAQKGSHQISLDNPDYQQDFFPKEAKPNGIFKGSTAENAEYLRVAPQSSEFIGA

Compound	viability at 96 h, 50 µM [7, 12]	IC50 ([2]; Homo sapiens, A549)	IC50 ([3]; Homo sapiens)	IC50 ([4]; Homo sapiens, MCF7)	IC50 ([5]; Homo sapiens, PANC-1)	GI50 ([6]; Homo sapiens)	melting point	other results
4,4′-(((naphthalene-1,8-diylbis(oxy))bis(methylene))bis(1H-1,2,3-triazole-4,1-diyl))-bis-(8-methylquinolin-2(1H)-one) [Compound 4d]	–	–	–	–	–	–	–	Cell Viability % [1]: 86%; IC50 ([2]; A-549): 0.09 ± 0.009 µM; IC50 [3]: 0.097 ± 0.009 µM; IC50 ([4]; MCF-7): 0.095 ± 0.009 µM; IC50 ([5]; Panc-1): 0.098 ± 0.009 µM; GI50 [6]: 0.095 µM; times less potent than 4b (GI50) ([6]; relative to 4b): at least twofold less potent
COc1ccc2[nH]c(=O)cc(-n3cc(COc4cccc5cccc(OCc6cn(-c7cc(=O)[nH]c8ccc(OC)cc78)nn6)c45)nn3)c2c1 [Compound 4c, 4,4′-(((naphthalene-1,8-diylbis(oxy))bis(methylene))bis(1H-1,2,3-triazole-4,1-diyl))-bis-(6-methoxyquinolin-2(1H)-one)]	87%	0.078 ± 0.008 µM	0.081 ± 0.008 µM	0.079 ± 0.008 µM	0.083 ± 0.008 µM	0.08 µM	> 360 °C	–
O=c1cc(-n2cc(COc3cccc4c(OCc5cn(-c6cc(=O)[nH]c7ccccc67)nn5)cccc34)nn2)c2ccccc2[nH]1 [Compound 7a, 4,4′-(((naphthalene-1,5-diylbis(oxy))bis(methylene))bis(1H-1,2,3-triazole-4,1-diyl))-bis-(quinolin-2(1H)-one)]	89%	0.057 ± 0.006 µM	0.065 ± 0.006 µM	0.059 ± 0.006 µM	0.062 ± 0.006 µM	–	> 360 °C	–
COc1ccc2[nH]c(=O)cc(-n3cc(COc4cccc5c(OCc6cn(-c7cc(=O)[nH]c8ccc(OC)cc78)nn6)cccc45)nn3)c2c1 [Compound 7c, 4,4′-(((naphthalene-1,5-diylbis(oxy))bis(methylene))bis(1H-1,2,3-triazole-4,1-diyl))-bis-(6-methoxyquinolin-2(1H)-one)]	91%	0.07 ± 0.007 µM	0.076 ± 0.007 µM	0.074 ± 0.007 µM	0.075 ± 0.007 µM	0.074 µM	> 360 °C	–
Cc1cccc2c(-n3cc(COc4cccc5c(OCc6cn(-c7cc(=O)[nH]c8c(C)cccc78)nn6)cccc45)nn3)cc(=O)[nH]c12 [Compound 7d, 4,4′-(((naphthalene-1,5-diylbis(oxy))bis(methylene))bis(1H-1,2,3-triazole-4,1-diyl))-bis-(8-methylquinolin-2(1H)-one)]	–	0.05 ± 0.005 µM	0.057 ± 0.005 µM	0.053 ± 0.005 µM	0.057 ± 0.005 µM	0.054 µM	–	viability at 96 h, 50 µM ([7]; MCF-10A mammary gland epithelial cells (normal cell line)): 89%; Caspase-3 Fold Change (caspase-3 [8]): 7.40; IC50 (EGFR [9]): 0.097 ± 0.009 µM; fold less effective than erlotinib (EGFR IC50) (EGFR [9]; relative to erlotinib): roughly 1.3 fold
O=C(CSc1nnc(Cn2cc(-c3ccccc3)nn2)o1)Nc1nc(-c2ccc(Cl)cc2)cs1 [Compound VI]	–	–	–	–	–	–	–	GI50 (four cancer cell lines): 0.23 µM; Caspase-3 level increase (caspase-3 [10]): 7.80 times; Caspase-9 level increase (caspase-9): 19.30 times; Cytochrome-C level increase (Cytochrome-C): 13 times; Bax level elevation (Bax): 40 fold; Bcl-2 level decrease (Bcl-2): 6.3 fold; IC50 (EGFR [11]): 0.11 µM
CN(C)c1ccc(/C=C/C(=O)c2ccc3ncc(C(N)=O)c(Nc4ccc(Cl)cc4)c3c2)cc1 [III]	–	–	–	–	–	–	–	IC50 (EGFR [11]): 5.2 µM
